# Values of other authors in PubChem BioAssay AID1259409 (Chemical Carcinogenesis Research Information System (CCRIS), 2018).
# Tested on: rodent chemically induced tumor inhibition, incidence and multiplicity
# Experiment: CCRIS tumor inhibitor studies
smiles,measurement,setting,value
CC1=C(/C=C/C(C)=C/C=C/C(C)=C/C=C/C=C(C)/C=C/C=C(C)/C=C/C2=C(C)C(=O)[C@@H](O)CC2(C)C)C(C)(C)C[C@H](O)C1=O,"tumour outcome (control, treated, inhibition, significance)","Carcinogen: 4-NITROQUINOLINE-1-OXIDE, 56-57-5, Dose [Inhibitor]: 0, 100 PPM IN DIET FOR 10 WK BEGINNING PRIOR TO CARCINOGEN TREATMENT (STUDY DURATION: 32 WK), Route [Inhibitor]: ORAL, Species: RAT, Strain/Sex: F344/MALE, Target Tissue: Type of Lesion: TONGUE: PAPILLOMA, Dose [Carcinogen]: 20 PPM IN DRINKING WATER FOR 8 WK, Promoter: NONE USED","4/24 (17%), 0/18 (0%), 100%, p<0.05"
same,"tumour outcome (control, treated, inhibition, significance)","Carcinogen: 4-NITROQUINOLINE-1-OXIDE, 56-57-5, Dose [Inhibitor]: 0, 100 PPM IN DIET FOR 10 WK BEGINNING PRIOR TO CARCINOGEN TREATMENT (STUDY DURATION: 32 WK), Route [Inhibitor]: ORAL, Species: RAT, Strain/Sex: F344/MALE, Target Tissue: Type of Lesion: TONGUE: SQUAMOUS CELL CARCINOMA, Dose [Carcinogen]: 20 PPM IN DRINKING WATER FOR 8 WK, Promoter: NONE USED","13/24 (54%), 0/18 (0%), 100%, p<0.05"
same,"tumour outcome (control, treated, inhibition, significance)","Carcinogen: 4-NITROQUINOLINE-1-OXIDE, 56-57-5, Dose [Inhibitor]: 0, 100 PPM IN DIET FOR 22 WK BEGINNING 1 WK POST CARCINOGEN TREATMENT (STUDY DURATION: 32 WK), Route [Inhibitor]: ORAL, Species: RAT, Strain/Sex: F344/MALE, Target Tissue: Type of Lesion: TONGUE: PAPILLOMA, Dose [Carcinogen]: 20 PPM IN DRINKING WATER FOR 8 WK, Promoter: NONE USED","4/24 (17%), 0/20 (0%), 100%, p<0.05"
same,"tumour outcome (control, treated, inhibition, significance)","Carcinogen: 4-NITROQUINOLINE-1-OXIDE, 56-57-5, Dose [Inhibitor]: 0, 100 PPM IN DIET FOR 22 WK BEGINNING 1 WK POST CARCINOGEN TREATMENT (STUDY DURATION: 32 WK), Route [Inhibitor]: ORAL, Species: RAT, Strain/Sex: F344/MALE, Target Tissue: Type of Lesion: TONGUE: SQUAMOUS CELL CARCINOMA, Dose [Carcinogen]: 20 PPM IN DRINKING WATER FOR 8 WK, Promoter: NONE USED","13/24 (54%), 0/20 (0%), 100%, p<0.05"
same,"tumour outcome (control, treated, inhibition, significance)","Carcinogen: N-BUTYL-N-(4-HYDROXYBUTYL)NITROSAMINE, 3817-11-6, Dose [Inhibitor]: 0, 50 PPM IN DRINKING WATER FOR 2O WK BEGINNING 1 WK POST CARCINOGEN TREATMENT (STUDY DURATION: 41 WK), Route [Inhibitor]: ORAL, Species: MOUSE, Strain/Sex: ICR/MALE, Target Tissue: Type of Lesion: URINARY BLADDER: CARCINOMA, Dose [Carcinogen]: 250 PPM IN DRINKING WATER FOR 20 WK, Promoter: NONE USED","15/36 (42%), 6/33 (18%), 57%, p<0.05"
same,"tumour outcome (control, treated, inhibition, significance)","Carcinogen: N-BUTYL-N-(4-HYDROXYBUTYL)NITROSAMINE, 3817-11-6, Dose [Inhibitor]: 0, 50 PPM IN DRINKING WATER FOR 20 WK BEGINNING 1 WK POST CARCINOGEN TREATMENT (STUDY DURATION: 41 WK), Route [Inhibitor]: ORAL, Species: MOUSE, Strain/Sex: ICR/MALE, Target Tissue: Type of Lesion: URINARY BLADDER: PAPILLOMA, Dose [Carcinogen]: 250 PPM IN DRINKING WATER FOR 20 WK, Promoter: NONE USED","2/36 (6%), 4/33 (12%), -100%, not significant"
CN(C)CCOC(c1ccccc1)c1ccccc1,"tumour outcome (control, treated, inhibition, significance)","Carcinogen: 7,12-DIMETHYLBENZ[A]ANTHRACENE, 57-97-6, Dose [Inhibitor]: 0, 0.086 UMOL 2/WK BEGINNING 1 WK POST CARCINOGEN DOSE AND CONTINUING FOR DURATION OF STUDY (STUDY DURATION: 15 WK), Route [Inhibitor]: DERMAL, Species: MOUSE, Strain/Sex: SENCAR/FEMALE, Target Tissue: Type of Lesion: SKIN: PAPILLOMA, Dose [Carcinogen]: 10 NMOL ONCE, Promoter: 12-O-TETRADECANOYLPHORBOL-13-ACETATE, 16561-29-8","97%, 75%, 23%, not calculated"
same,"tumour outcome (control, treated, inhibition, significance)","Carcinogen: 7,12-DIMETHYLBENZ[A]ANTHRACENE, 57-97-6, Dose [Inhibitor]: 0, 0.342 UMOL 2/WK BEGINNING 1 WK POST CARCINOGEN DOSE AND CONTINUING FOR DURATION OF STUDY (STUDY DURATION: 15 WK), Route [Inhibitor]: DERMAL, Species: MOUSE, Strain/Sex: SENCAR/FEMALE, Target Tissue: Type of Lesion: SKIN: PAPILLOMA, Dose [Carcinogen]: 10 NMOL ONCE, Promoter: 12-O-TETRADECANOYLPHORBOL-13-ACETATE, 16561-29-8","97%, 80%, 18%, not calculated"
same,"tumour outcome (control, treated, inhibition, significance)","Carcinogen: 7,12-DIMETHYLBENZ[A]ANTHRACENE, 57-97-6, Dose [Inhibitor]: 0, 0.856 UMOL 2/WK BEGINNING 1 WK POST CARCINOGEN DOSE AND CONTINUING FOR DURATION OF STUDY (STUDY DURATION: 15 WK), Route [Inhibitor]: DERMAL, Species: MOUSE, Strain/Sex: SENCAR/FEMALE, Target Tissue: Type of Lesion: SKIN: PAPILLOMA, Dose [Carcinogen]: 10 NMOL ONCE, Promoter: 12-O-TETRADECANOYLPHORBOL-13-ACETATE, 16561-29-8","97%, 75%, 23%, not calculated"
same,"tumour outcome (control, treated, inhibition, significance)","Carcinogen: 7,12-DIMETHYLBENZ[A]ANTHRACENE, 57-97-6, Dose [Inhibitor]: 0, 10 MG A WK IN DRINKING WATER BEGINNING 1 WK POST CARCINOGEN DOSE AND CONTINUING FOR DURATION OF STUDY (STUDY DURATION, Route [Inhibitor]: ORAL, Species: MOUSE, Strain/Sex: SENCAR/MALE, Target Tissue: Type of Lesion: SKIN: PAPILLOMA, Dose [Carcinogen]: 100 NMOL IN 200 µL ACETONE ONCE, Promoter: 12-O-TETRADECANOYLPHORBOL-13-ACETATE, 16561-29-8","95%, 98%, -3%, not calculated"
Cc1cc(NC(=O)[C@H](CCCN=C(N)N)NC(=O)[C@H](CO)NC(=O)[C@H](Cc2ccccc2)NC(=O)OC(C)(C)C)cc2oc(=O)ccc12,"tumour outcome (control, treated, inhibition, significance)","Carcinogen: 1,2-DIMETHYLHYDRAZINE, 540-73-8, Dose [Inhibitor]: 0, 2429 UG/G IN DIET FOR 32 WK BEGINNING AT 24 D OF AGE (STUDY DURATION: 32 WK), Route [Inhibitor]: ORAL, Species: RAT, Strain/Sex: SPRAGUE-DAWLEY/MALE, Target Tissue: Type of Lesion: COLON: ADENOCARCINOMA, Dose [Carcinogen]: 20 MG/KG 1/WK FOR 15 WK BEGINNING ON D 37, Promoter: NONE USED","19/22 (86%), 11/16 (69%), 20%, not calculated"
same,"tumour outcome (control, treated, inhibition, significance)","Carcinogen: 1,2-DIMETHYLHYDRAZINE, 540-73-8, Dose [Inhibitor]: 0, 2429 UG/G IN DIET FOR 32 WK BEGINNING AT 24 D OF AGE (STUDY DURATION: 32 WK), Route [Inhibitor]: ORAL, Species: RAT, Strain/Sex: SPRAGUE-DAWLEY/MALE, Target Tissue: Type of Lesion: SMALL INTESTINE: ADENOCARCINOMA, Dose [Carcinogen]: 20 MG/KG 1/WK FOR 15 WK BEGINNING ON D 37, Promoter: NONE USED","18/22 (82%), 10/16 (63%), 23%, not calculated"
Oc1cc(O)cc(O)c1,"tumour outcome (control, treated, inhibition, significance)","Carcinogen: BENZO[A]PYRENE, 50-32-8, Dose [Inhibitor]: 0.03 MMOL/G OF DIET DAILY STARTING 7 D BEFORE AND CONTINUING THROUGH 3 D AFTER CARCINOGEN TREATMENT FOLLOWED BY OBSERVAT, Route [Inhibitor]: ORAL, Species: MOUSE, Strain/Sex: ICR/FEMALE, Target Tissue: Type of Lesion: FORESTOMACH: NEOPLASM, Dose [Carcinogen]: 1 MG IN 0.2 ML CORN OIL 2/WK FOR 4 WK, Promoter: NONE USED","100%, 83%, 17%, not significant"
CCOC(=O)/C=C(/C=C/C=C(C)/C=C/c1c(C)cc(OC)c(C)c1C)C(F)(F)F,"tumour outcome (control, treated, inhibition, significance)","Carcinogen: 7,12-DIMETHYLBENZ[A]ANTHRACENE, 57-97-6, Dose [Inhibitor]: 140 NMOL IN 0.2 ML ACETONE 2/WK (D 1 AND D 4 OF EACH WK) 1 HR BEFORE EACH PROMOTER APPLICATION STARTING 14 D AFTER CARCI, Route [Inhibitor]: DERMAL, Species: MOUSE, Strain/Sex: CD-1/FEMALE, Target Tissue: Type of Lesion: SKIN: PAPILLOMA, Dose [Carcinogen]: 0.2 UMOL IN 0.2 ML ACETONE ONCE, Promoter: 12-O-TETRADECANOYLPHORBOL-13-ACETATE, 16561-29-8","90%, 100%, -11%, not significant"
O=CC(O)C(O)C(O)CO (stereo not given),"tumour outcome (control, treated, inhibition, significance)","Carcinogen: 1,2-DIMETHYLHYDRAZINE, 540-73-8, Dose [Inhibitor]: 0, 10% IN FIBER-FREE DIET FOR 24 WK BEGINNING POST CARCINOGEN TREATMENT (STUDY DURATION: 32 WK), Route [Inhibitor]: ORAL, Species: RAT, Strain/Sex: SPRAGUE-DAWLEY/MALE, Target Tissue: Type of Lesion: COLON: ADENOCARCINOMA, Dose [Carcinogen]: 12 MG/KG BW 1/WK FOR 8 WK, Promoter: NONE USED","73%, 53%, 27%, p=0.05"
